Source: PubChem BioAssay (NCI)
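Step 1: Grow cells in 96-well plates. Step 2: Expose to compound for 48 hours at 5 concentrations. Step 3: Interpolate endpoints linearly; if unreached, use highest concentration. Here, GI50 denotes the concentration required for 50% inhibition of growth. TGI: total growth inhibition.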

Experiments:
Assay in all cases: NCI-60 cell line screen, 48 h
NCI/ADR-RES ovarian = system: NCI/ADR-RES ovarian
PC-3 prostate = system: PC-3 prostate
K-562 leukemia = system: K-562 leukemia
UO-31 renal = system: UO-31 renal
SF-268 CNS = system: SF-268 CNS
SF-539 CNS = system: SF-539 CNS
NCI-H226 lung = system: NCI-H226 lung
IGROV1 ovarian = system: IGROV1 ovarian
SK-OV-3 ovarian = system: SK-OV-3 ovarian
SW-620 colon = system: SW-620 colon

Structure (SMILES) | GI50 (NCI/ADR-RES ovarian) [µM] | TGI (NCI/ADR-RES ovarian) [µM] | GI50 (PC-3 prostate) [µM] | TGI (PC-3 prostate) [µM] | GI50 (K-562 leukemia) [µM] | TGI (K-562 leukemia) [µM] | GI50 (UO-31 renal) [µM] | TGI (UO-31 renal) [µM] | GI50 (SF-268 CNS) [µM] | TGI (SF-268 CNS) [µM] | GI50 (SF-539 CNS) [µM] | TGI (SF-539 CNS) [µM] | GI50 (NCI-H226 lung) [µM] | TGI (NCI-H226 lung) [µM] | GI50 (IGROV1 ovarian) [µM] | TGI (IGROV1 ovarian) [µM] | GI50 (SK-OV-3 ovarian) [µM] | TGI (SK-OV-3 ovarian) [µM] | GI50 (SW-620 colon) [µM] | TGI (SW-620 colon) [µM]
Cc1ccc(C(=O)NC2CCC2)cc1-c1ccc(C(=O)NCC2CC2)cc1 | > 25 | > 25 | > 25 | > 25 | > 25 | > 25 | > 25 | > 25 | > 25 | > 25 | > 25 | > 25 | > 25 | > 25 | > 25 | > 25 | > 25 | > 25 | > 25 | > 25
COc1ccc(/C=C(\C(=O)NCc2cccnc2)S(=O)(=O)c2ccccc2)cc1OC | 18.2 | > 100 | 3.5 | 14.5 | 3.33 | > 100 | 2.69 | 11.3 | 3.32 | 15.9 | 2.49 | 6.74 | 3.13 | 10.7 | 2.22 | 11.3 | 4.1 | 13.2 | 2.95 | 10.9
O=[N+]([O-])c1ccc(N=Nc2ccc(O)c3ccccc23)cc1 | 2.41 | 55.8 | 1.67 | > 100 | 3.13 | > 100 | 5.42 | > 100 | 2.9 | > 100 | 10.3 | > 100 | 26.3 | > 100 | 5.27 | > 100 | 11.9 | 47.7 | 3.33 | > 100
COc1ccccc1CNCCCN1C(=O)c2ccc3c4c(ccc(c24)C1=O)C(=O)N(CCCN)C3=O | 2.86 | 9.6 | 1.68 | 4.95 | 0.751 | 3.35 | 1.96 | 5.35 | 1.22 | 3.94 | 1.21 | 2.5 | 1.85 | 3.92 | 1.35 | 3.48 | 2.53 | 7.18 | 0.589 | 2.33
CN(C)CC1CCC2=C(C1=O)C(c1ccc(Cl)c(Cl)c1)C1=C(CCC(CN(C)C)C1=O)O2 (centres undefined) | 19.4 | 57.4 | – | 19.9 | 2.46 | 6.34 | 2.78 | 7.17 | 15.6 | 29.5 | 6.01 | 18.2 | 15.3 | 31.2 | 4.54 | 8.97 | 13.3 | 26 | 2.47 | 16.9
CC(C)(C)c1[nH]nc2c1C(c1cc3ccccc3[nH]c1=O)Nc1cc(C(=O)OCc3ccccc3)ccc1N2 (centres undefined) | > 100 | > 100 | 2.7 | > 100 | 4.18 | > 100 | 3.42 | > 100 | 4.82 | > 100 | 4.56 | > 100 | 3.2 | > 100 | 4.32 | > 100 | 3.27 | 8.73 | 3.53 | > 100
